Data as given in patent US20200055897A1, “MODIFIED PEPTOIDS” (Technion Research & Development Foundation Limited, priority 2017, published 2020).
In brackets after ≈: the same amount, converted by molar mass. Several values for one entry are separate records, joined by “and”; a condition that tells them apart may be missing. Identical values can stand only once. Like-named read-outs stand apart in the source and are kept apart here. Starred links: 1 amine or outer side, 2 acyl side, 3 side chain; linkers in the order of their positions; H or OH if unused. Non-standard residues stand in square brackets, D forms with d. Residues, ends and D or L forms follow the SMILES beside them. *: point of attachment. N(CH2CH2O-4'-Tpy)Gly = O=C(O)CNCCOc1cc(-c2ccccn2)nc(-c2ccccn2)c1; Acetyl(2-(piperazin-1-yl)) = O=C(CN1CCNCC1)*; X2 = O=C(CN(Cc1ccc2cccc(O)c2n1)[*:1])[*:2]; Gly(Nα-NHCO2Et) = CCOC(=O)NNCC(=O)O; Nrpe = C[C@@H](NCC(=O)O)c1ccccc1; X4 = O=C(CN1CCCN([*:1])CC1)[*:2]; Nspe = C[C@H](NCC(=O)O)c1ccccc1; X1 = O=C(CN1CCN([*:1])CC1)[*:2]; X5 = NC(=O)CN1CCN(*)CC1; X3 = O=C(CN1CCCNCC1)*

Tests used:
[1] = General method for water solubility test (gradual addition of water to 1 mg peptoid until clear); format: physicochemical
Method: 1 mg peptoid was placed in an Eppendorf container and water was added gradually (e.g., […] per addition) until a clear solution was obtained. The solubility test was repeated three times and average values are presented. The limit of the test was typically 2.0×10^2 mg/liter (i.e., 1 mg per 5 ml).
Water solubility tests were carried out by a gradual addition of 5 μl distilled water to 1 mg peptoid until a clear solution was obtained. This assay was repeated three times and results were averaged.

[2] = Circular dichroism (CD) spectra of peptoids in water (temperature and concentration dependence); format: physicochemical; settings: for Aggregation in water from concentration dependence of CD spectra: 40 to 180 μM
Method: Circular dichroism (CD) measurements were performed using a J-810-150S circular dichroism spectropolarimeter (Jasco). Spectra were obtained in a 1 mm path-length fused quartz cell. Prior to taking measurements, 5 mM stock oligomer solution was constituted in 100% water. The appropriate dilutions were made immediately before the measurements. Eight scans were taken for each sample at a scan rate of 1 nm/second at 1 nm increments. Data are expressed in terms of per-residue molar ellipticity (degrees*cm^2/dmol) calculated per mole of amide groups present.
(§1) In order to assess whether the dissolved peptoids form aggregates, fluorescence spectra were determined for P18 and P21 (which comprise Ns1npe) dissolved in water. Aggregation of peptoids with Ns1npe groups has been reported to be associated with an excimer band at 392 nm [Fuller et al., Org. Lett. 2013, 15:5118-5121]. In addition, CD spectra of P21 were determined at various concentrations ranging from 40 to 180 μM in water.
Similarly, CD spectra of P2, P5 and P8 (which comprise Nspe rather than Ns1npe as in P18 and P21) were determined in order to assess whether the dissolved peptoids form aggregates in water.

[3] = Fluorescence emission spectra in water (excimer band, aggregation); format: physicochemical; settings: 40 μM
Method: as §1

[4] = literature report (Baskin & Maayan 2016); cited from earlier work
[5] = Selectivity towards Cu^2+ by UV-visible absorption spectra (metal ion mixture vs Cu^2+-complex); format: binding; settings: water; 1 equivalent peptoid, mixture of Cu^2+, Co^2+, Zn^2+, Fe^2+, Mn^2+ and Ni^2+
Method: UV-visible spectrometry measurements were performed using a Cary™ 60 UV-Vis spectrophotometer (Agilent) with Czerny-Turner monochromator. In a typical UV-visible experiment, 10 μl of a peptoid solution (5 mM) was diluted in 3 ml H2O (to obtain a 17 μM concentration) and the UV-visible spectrum was measured. Afterwards 1 equivalent of Cu^2+ (10 μl, 5 mM) or solution containing mixtures of metal ions (1 equivalent Cu^2+, Co^2+, Zn^2+, Mn^2+, Ni^2+ and Fe^3+, 5 mM, 10 μl) was added and the spectrum was measured again.
In order to evaluate the selectivity of P33 and P34 towards Cu^2+, 1 equivalent of each peptoid in water was added to 1 equivalent of a mixture solution containing the metal ions Cu^2+, Co^2+, Zn^2+, Fe^2+, Mn^2+ and Ni^2+, and UV-visible absorption spectra were recorded and compared to UV-visible absorption of Cu^2+-complexes of the peptoids. It has been previously shown that comparing UV-visible absorption spectra is a highly reliable tool to assess the selectivity of the peptoid chelators.

Row | SMILES | solubility [1] | Aggregation in water from concentration dependence of CD spectra [2] | other results
1 | C[C@@H](c1ccccc1)N(CC(N)=O)C(=O)CN(C(=O)CN(C(=O)CN(C(=O)CN(C(=O)CN(C(=O)CN1CCNCC1)[C@@H](C)c1ccccc1)[C@@H](C)c1ccccc1)[C@@H](C)c1ccccc1)[C@@H](C)c1ccccc1)[C@@H](C)c1ccccc1 [Peptoid P2, (Nspe)6-Npz] ({Acetyl(2-(piperazin-1-yl))}-[Nspe][Nspe][Nspe][Nspe][Nspe][Nspe]-NH2) | ~900 µM and 1000 µg/mL | no aggregation | solubility ([1]; pH 4.5): 1.66 mg/mL (≈ 1.49 mM); solubility ([1]; pH 7.5): 1.28 mg/mL (≈ 1.15 mM); solubility ([1]; pH 10.5): < 0.2 mg/mL; Change of CD spectrum (helical structure) in water with temperature ([2]; 0° C. to 90° C.): does not change significantly
2 | C[C@@H](c1ccccc1)N(CC(N)=O)C(=O)CN(C(=O)CN(C(=O)CN(C(=O)CN(C(=O)CN(C(=O)CN1CCN(C(=O)CN2CCNCC2)CC1)[C@@H](C)c1ccccc1)[C@@H](C)c1ccccc1)[C@@H](C)c1ccccc1)[C@@H](C)c1ccccc1)[C@@H](C)c1ccccc1 [Peptoid P5, (Nspe)6-(Npz)2] ({Acetyl(2-(piperazin-1-yl))}-[X1][Nspe][Nspe][Nspe][Nspe][Nspe][Nspe]-NH2) | 58 mg/mL (≈ 46.9 mM) | no aggregation | Water solubility relative to that of P2 [1]: over 50 times; Water solubility relative to that of P2 at pH 10.5 ([1]; pH 10.5): 30 times
3 | C[C@@H](c1ccccc1)N(CC(N)=O)C(=O)CN(C(=O)CN(C(=O)CN(C(=O)CN(C(=O)CN(C(=O)CN1CCCN(C(=O)CN2CCCNCC2)CC1)[C@@H](C)c1ccccc1)[C@@H](C)c1ccccc1)[C@@H](C)c1ccccc1)[C@@H](C)c1ccccc1)[C@@H](C)c1ccccc1 [Peptoid P8, (Nspe)6-(Nhpz)2] (X3-[X4][Nspe][Nspe][Nspe][Nspe][Nspe][Nspe]-NH2) | 510 mg/mL (≈ 403 mM) | no aggregation | 
4 | C[C@@H](c1cccc2ccccc12)N(CC(N)=O)C(=O)CN(C(=O)CN(C(=O)CN(C(=O)CN1CCN(C(=O)CN2CCNCC2)CC1)[C@@H](C)c1cccc2ccccc12)[C@@H](C)c1cccc2ccccc12)[C@@H](C)c1cccc2ccccc12 [Peptoid P18, (Ns1npe)4-(Npz)2] | 13.3 mg/mL (≈ 11.9 mM) |  | Excimer band near 392 nm (aggregation) [3]: no excimer band was observed
5 | CCOC(=O)NN(CC(=O)N(CC(N)=O)[C@H](C)c1ccccc1)C(=O)CN(C(=O)CN(NC(=O)OCC)C(=O)CN(C(=O)CN(NC(=O)OCC)C(=O)CN1CCN(C(=O)CN2CCNCC2)CC1)[C@H](C)c1ccccc1)[C@H](C)c1ccccc1 [Peptoid P30] ({Acetyl(2-(piperazin-1-yl))}-[X1][Gly(Nα-NHCO2Et)][Nrpe][Gly(Nα-NHCO2Et)][Nrpe][Gly(Nα-NHCO2Et)][Nrpe]-NH2) | 177 mg/mL (≈ 149 mM) |  | 
6 | C[C@@H](c1ccccc1)N(CC(N)=O)C(=O)CN(CCOc1cc(-c2ccccn2)nc(-c2ccccn2)c1)C(=O)CN(C(=O)CN(C(=O)CN(Cc1ccc2cccc(O)c2n1)C(=O)CN(C(=O)CN1CCNCC1)[C@@H](C)c1ccccc1)[C@@H](C)c1ccccc1)[C@@H](C)c1ccccc1 [Peptoid P33, Nspe-Ntrp-(Nspe)2-Nhq-Nspe-Npz] ({Acetyl(2-(piperazin-1-yl))}-[Nspe][X2][Nspe][Nspe][N(CH2CH2O-4'-Tpy)Gly][Nspe]-NH2; N-terminus assumed) | 244 mg/mL (≈ 183 mM) |  | Selective binding to Cu^2+ [5]: does not selectively bind to Cu^2+

Further lines, with some results ahead:

Row | solubility [1] | Aggregation in water from concentration dependence of CD spectra [2] | SMILES | other results
7 | 176 mg/mL (≈ 142 mM) | some concentration-dependent aggregation | C[C@@H](c1cccc2ccccc12)N(CC(N)=O)C(=O)CN(C(=O)CN(C(=O)CN(C(=O)CN1CCN(C(=O)CN2CCN(C(=O)CN3CCNCC3)CC2)CC1)[C@@H](C)c1cccc2ccccc12)[C@@H](C)c1cccc2ccccc12)[C@@H](C)c1cccc2ccccc12 [Peptoid P21, (Ns1npe)4-(Npz)3] | Excimer band near 392 nm (aggregation) [3]: no excimer band was observed
8 | < 0.2 mg/mL |  | C[C@H](NCC(=O)N(CC(=O)N(CC(=O)N(CC(=O)N(CCOc1cc(-c2ccccn2)nc(-c2ccccn2)c1)CC(=O)N(CC(N)=O)[C@@H](C)c1ccccc1)[C@@H](C)c1ccccc1)[C@@H](C)c1ccccc1)Cc1ccc2cccc(O)c2n1)c1ccccc1 [Peptoid P32, reference compound] (H-[Nspe][X2][Nspe][Nspe][N(CH2CH2O-4'-Tpy)Gly][Nspe]-NH2; N-terminus assumed) | Selective chelation of Cu^2+ (reported) [4]: selective peptoid chelator for Cu^2+
9 | 8.3 mg/mL (≈ 6.22 mM) |  | C[C@H](NCC(=O)N(CC(=O)N(CC(=O)N(CC(=O)N(CCOc1cc(-c2ccccn2)nc(-c2ccccn2)c1)CC(=O)N(CC(=O)N1CCN(CC(N)=O)CC1)[C@@H](C)c1ccccc1)[C@@H](C)c1ccccc1)[C@@H](C)c1ccccc1)Cc1ccc2cccc(O)c2n1)c1ccccc1 [Peptoid P34, Npz-Nspe-Ntrp-(Nspe)2-Nhq-Nspe] (H-[Nspe][X2][Nspe][Nspe][N(CH2CH2O-4'-Tpy)Gly][Nspe]-X5; N-terminus assumed) | Selective binding to Cu^2+ [5]: selectively binds to Cu^2+
